Test results reported in PubChem BioAssay AID2060624 (Molecular Pharmacology Branch, DTP, NCI, 2025).
pIC50: −log10 of the molar value.

Tested on: 217524-143-R1-J4-PDC spheroids with HUVEC/MSC, viability
Test: Anticancer human tumor 217524-143-R1-J4-PDC patient-derived pancreatic carcinoma cell line growth inhibition [CLK]
Conditions: for pIC50: curve of first compound; for viability, T/C: stronger effect = lower value
How it was run: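 Patient-derived tumor cells grown as complex spheroids with HUVEC endothelial cells and mesenchymal stem cells, treated with drug combinations. Concentrations descend in half-log steps from near clinical Cmax, or from 10 microM if Cmax unknown.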
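Further: spheroids exposed to agents for seven days before reading.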
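Wherever viability, T/C is given: 100% = DMSO vehicle control viability.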

Compound: CCN1CCN(Cc2ccc(Nc3ncc(F)c(-c4cc(F)c5nc(C)n(C(C)C)c5c4)n3)nc2)CC1 + CN1CCN(c2cc(C(=O)Nc3cc4cc(-c5cnn(C)c5)ccc4cn3)ccn2)CC1
- pIC50 (second compound 0.0316 µM): 6.65
- pIC50 (second compound 0.1 µM): 7.96
- pIC50 (second compound 0.316 µM): > 8.50
- pIC50 (second compound 1 µM): > 8.50
- pIC50 (second compound 3.16 µM): > 8.50
- pIC50 (second compound 10 µM): > 8.50
- viability, T/C (second compound 0.0316 µM, first compound 0.00316 µM): 93.3%
- viability, T/C (second compound 0.0316 µM, first compound 0.01 µM): 62.5%
- viability, T/C (second compound 0.0316 µM, first compound 0.0316 µM): 71.2%
- viability, T/C (second compound 0.0316 µM, first compound 0.1 µM): 60%
- viability, T/C (second compound 0.0316 µM, first compound 0.316 µM): 41%
- viability, T/C (second compound 0.0316 µM, first compound 1 µM): 44.6%
- viability, T/C (second compound 0.1 µM, first compound 0.00316 µM): 55.3%
- viability, T/C (second compound 0.1 µM, first compound 0.01 µM): 53.4%
- viability, T/C (second compound 0.1 µM, first compound 0.0316 µM): 44.8%
- viability, T/C (second compound 0.1 µM, first compound 0.1 µM): 39%
- viability, T/C (second compound 0.1 µM, first compound 0.316 µM): 29.1%
- viability, T/C (second compound 0.1 µM, first compound 1 µM): 32.6%
- viability, T/C (second compound 0.316 µM, first compound 0.00316 µM): 23.3%
- viability, T/C (second compound 0.316 µM, first compound 0.01 µM): 21.7%
- viability, T/C (second compound 0.316 µM, first compound 0.0316 µM): 17.6%
- viability, T/C (second compound 0.316 µM, first compound 0.1 µM): 17.6%
- viability, T/C (second compound 0.316 µM, first compound 0.316 µM): 15.8%
- viability, T/C (second compound 0.316 µM, first compound 1 µM): 17.1%
- viability, T/C (second compound 1 µM, first compound 0.00316 µM): 2.31%
- viability, T/C (second compound 1 µM, first compound 0.01 µM): 2.94%
- viability, T/C (second compound 1 µM, first compound 0.0316 µM): 2.53%
- viability, T/C (second compound 1 µM, first compound 0.1 µM): 3.19%
- viability, T/C (second compound 1 µM, first compound 0.316 µM): 3.76%
- viability, T/C (second compound 1 µM, first compound 1 µM): 3.89%
- viability, T/C (second compound 3.16 µM, first compound 0.00316 µM): 0.74%
- viability, T/C (second compound 3.16 µM, first compound 0.01 µM): 0.96%
- viability, T/C (second compound 3.16 µM, first compound 0.0316 µM): 1.42%
- viability, T/C (second compound 3.16 µM, first compound 0.1 µM): 1.28%
- viability, T/C (second compound 3.16 µM, first compound 0.316 µM): 3%
- viability, T/C (second compound 3.16 µM, first compound 1 µM): 4.17%
- viability, T/C (second compound 10 µM, first compound 0.00316 µM): 0.23%
- viability, T/C (second compound 10 µM, first compound 0.01 µM): 0.28%
- viability, T/C (second compound 10 µM, first compound 0.0316 µM): 0.27%
- viability, T/C (second compound 10 µM, first compound 0.1 µM): 0.28%
- viability, T/C (second compound 10 µM, first compound 0.316 µM): 0.46%
- viability, T/C (second compound 10 µM, first compound 1 µM): 0.58%
